From ChEMBL document CHEMBL2434906, “Synthesis, characterization, and anticancer studies of S and N alkyl piperazine-substituted positional isomers of 1,2,4-triazole derivatives” (Med Chem Res, 2013)

Legend:
Type in all cases: functional, cell-based
HL-60 = assay: Cytotoxicity against human HL60 cells after 24 hrs by MTT assay; conditions: HL-60, 24 h
MCF7 = assay: Cytotoxicity against human MCF7 cells after 24 hrs by MTT assay; conditions: MCF7, 24 h
COLO 205 = assay: Cytotoxicity against human COLO205 cells after 24 hrs by MTT assay; conditions: COLO 205, 24 h
THP-1 = assay: Cytotoxicity against human THP1 cells after 24 hrs by MTT assay; conditions: THP-1, 24 h
U-937 = assay: Cytotoxicity against human U937 cells after 24 hrs by MTT assay; conditions: U-937, 24 h

| SMILES | IC50 (HL-60) | IC50 (MCF7) | IC50 (COLO 205) | IC50 (THP-1) | IC50 (U-937) |
| --- | --- | --- | --- | --- | --- |
| COc1ccc(-c2nn(CCCN3CCN(c4ccccn4)CC3)c(=S)[nH]2)cc1 | 115 µM | > 300 µM | > 300 µM | > 300 µM | > 300 µM |
| Clc1ccc(-c2nnc(SCCCN3CCN(c4ncccn4)CC3)[nH]2)cc1 | 105 µM | > 300 µM | > 300 µM | > 300 µM | 102 µM |
| Cc1ccc(-c2nnc(SCCCN3CCN(c4cccc(Cl)c4)CC3)[nH]2)cc1 | > 300 µM | > 300 µM | 139 µM | > 300 µM | 257 µM |
| COc1ccc(-c2nn(CCCN3CCOCC3)c(=S)[nH]2)cc1OC | > 300 µM | > 300 µM | > 300 µM | > 300 µM | > 300 µM |
| c1ccc(Cc2nnc(SCCCN3CCN(c4ccccn4)CC3)[nH]2)cc1 | > 300 µM | > 300 µM | > 300 µM | > 300 µM | 163 µM |
| Clc1cccc(-c2nnc(SCCCN3CCN(c4ncccn4)CC3)[nH]2)c1 | 18.5 µM | > 300 µM | > 300 µM | > 300 µM | 49.1 µM |
| Fc1ccc(-c2nn(CCCN3CCN(Cc4ccccc4)CC3)c(=S)[nH]2)cc1 | > 300 µM | 128 µM | 111 µM | 160 µM | > 300 µM |
| CCN1CCN(CCCSc2nnc(-c3ccc(C)cc3)[nH]2)CC1 | > 300 µM | > 300 µM | > 300 µM | > 300 µM | > 300 µM |
| CC(C)(C)c1ccc(-c2nnc(SCCCN3CCN(c4ccccc4)CC3)[nH]2)cc1 | > 300 µM | > 300 µM | > 300 µM | 97.6 µM | 49.3 µM |
| CC(C)(C)c1ccc(-c2nnc(SCCCN3CCOCC3)[nH]2)cc1 | > 300 µM | 287 µM | 155 µM | > 300 µM | 156 µM |
| Cc1cccc(-c2nnc(SCCCN3CCN(c4ccccc4)CC3)[nH]2)c1 | > 300 µM | > 300 µM | > 300 µM | 248 µM | > 300 µM |
| S=c1[nH]c(-c2ccc(Cl)cc2)nn1CCCN1CCN(c2cccc(Cl)c2)CC1 | 6.67 µM | > 300 µM | > 300 µM | > 300 µM | 28.2 µM |
| Fc1ccc(-c2nnc(SCCCN3CCN(Cc4ccccc4)CC3)[nH]2)cc1 | > 300 µM | 184 µM | 181 µM | 255 µM | 124 µM |
| CC(C)(C)c1ccc(-c2nn(CCCN3CCN(c4cccc(Cl)c4)CC3)c(=S)[nH]2)cc1 | > 300 µM | > 300 µM | > 300 µM | > 300 µM | > 300 µM |
| CCN1CCN(CCCn2nc(-c3ccc(OC)c(OC)c3)[nH]c2=S)CC1 | > 300 µM | > 300 µM | > 300 µM | > 300 µM | > 300 µM |
| COc1cc([C@@H]2c3cc4c(cc3[C@@H](O[C@@H]3O[C@@H]5CO[C@@H](C)O[C@H]5[C@H](O)[C@H]3O)[C@H]3COC(=O)[C@H]23)OCO4)cc(OC)c1O [ETOPOSIDE] | 1.84 µM | 29.5 µM | – | – | 10.4 µM |
| CCN1CCN(CCCSc2nnc(-c3ccccc3Cl)[nH]2)CC1 | > 300 µM | > 300 µM | > 300 µM | > 300 µM | > 300 µM |
| Clc1ccc(-c2nnc(SCCCN3CCN(c4cccc(Cl)c4)CC3)[nH]2)cc1 | > 300 µM | > 300 µM | > 300 µM | > 300 µM | > 300 µM |
| Cc1cccc(-c2nnc(SCCCN3CCN(c4ccccn4)CC3)[nH]2)c1 | 29.4 µM | > 300 µM | > 300 µM | > 300 µM | 52.3 µM |
| CC(C)(C)c1ccc(-c2nn(CCCN3CCN(c4ccccc4)CC3)c(=S)[nH]2)cc1 | > 300 µM | > 300 µM | > 300 µM | 147 µM | 88.9 µM |
| Cc1ccc(-c2nn(CCCN3CCN(c4cccc(Cl)c4)CC3)c(=S)[nH]2)cc1 | > 300 µM | > 300 µM | > 300 µM | > 300 µM | > 300 µM |
| Clc1ccccc1-c1nnc(SCCCN2CCN(c3ccccn3)CC2)[nH]1 | > 300 µM | > 300 µM | > 300 µM | > 300 µM | > 300 µM |
